Reference: PMC11721817 (Toxicology Reports, 2024)

What was measured:
[1] = system: HCT-116 cells; test: DNA fragmentation, Hoechst staining, HCT-116; format: cell-based, human; details: HCT-116, 50 µM, 24 h
[2] = system: red blood cells (RBCs); test: Hemolysis assay; format: cell-based; details: rat blood, 10 μM, 25 μM, 50 μM, and 100 μM, compared to positive control
[3] = system: Wistar rats; test: Acute oral toxicity study; details: for change in body weight / food consumed by animals (weight) / change in organ weight, Kidney / change in organ weight, Liver / change in organ weight, Spleen: mean ± S.E.M, n = 5
[4] = system: CT-26 cells; test: Cell migration; format: cell-based, murine; details: 24 h, control = 100 %
[5] = system: Wistar rats; test: Superoxide dismutase activity in organ homogenates; format: in vivo, rat; details: 1000 mg/kg
[6] = system: HCT-116 cells; test: Cell migration; format: cell-based, human; details: 24 h, control = 100 %
[7] = system: CT-26 cells; test: DNA fragmentation, Hoechst staining, CT-26; format: cell-based, murine; details: CT-26, 50 µM, 24 h
[8] = system: CT-26 (murine colorectal cancer cells); test: MTT cytotoxicity assay, CT-26; format: cell-based; details: Mus musculus, CT26, 24 h
[9] = system: HCT-116 (human colorectal cancer cells); test: MTT cytotoxicity assay, HCT-116; format: cell-based
[10] = system: Wistar rats; test: Lipid peroxidation assay; format: in vivo, rat; details: 1000 mg/kg, compared to control
[11] = system: Wistar rats; test: Serum biochemistry after acute oral administration; details: n = 3; for Globulin: normal range 1.5–2.5, mean ± S.E.M; for A/G ratio: normal range 1.58–2.67, mean ± S.E.M; for Albumin: normal range 3.4–4.8, mean ± S.E.M; for Total protein: normal range 5.2–7.1, mean ± S.E.M; for SGPT (ALT): normal range 18–45, mean ± S.E.M; for ALP: normal range 62–230, mean ± S.E.M; for SGOT (AST): normal range 74–183, mean ± S.E.M
[12] = system: Wistar rats; test: Histopathological examination of liver, kidney and spleen; format: in vivo, rat; details: H&E

Compound: CC(C)(C)Nc1c(-c2ccc(-c3ccccc3)cc2)nc2ccccn12 [IG-01–007, 2-([1,1’-biphenyl]-4-yl)-N-(tert-butyl)imidazo[1,2-a]pyridine-3-amine]
- DNA fragmentation [1]: DNA fragmentation
- hemolytic activity [2]: did not show any hemolytic activity
- change in body weight ([3]; 0 day, 300 mg/kg): 233 ± 2 gm
- food consumed by animals (weight) ([3]; 0 day, 300 mg/kg): 93.8 ± 1.1575 gm
- change in body weight ([3]; 0 day, 1000 mg/kg): 244 ± 15.6844 gm
- food consumed by animals (weight) ([3]; 0 day, 1000 mg/kg): 94.8 ± 0.80 gm
- change in organ weight, Kidney ([3]; 300 mg/kg): 1.6568 ± 0.110 gm
- change in organ weight, Liver ([3]; 300 mg/kg): 6.58 ± 0.535 gm
- change in organ weight, Spleen ([3]; 300 mg/kg): 0.654 ± 0.075 gm
- change in organ weight, Kidney ([3]; 1000 mg/kg): 1.854 ± 0.1179 gm
- change in organ weight, Liver ([3]; 1000 mg/kg): 6.204 ± 0.2716 gm
- change in organ weight, Spleen ([3]; 1000 mg/kg): 0.716 ± 0.0508 gm
- body weight course ([3]; 7th and 14th day, 1000 mg/kg): gradual decrease in body weight
- change in body weight ([3]; 7th day, 300 mg/kg): 248 ± 3.391 gm
- food consumed by animals (weight) ([3]; 7th day, 300 mg/kg): 90.4 ± 1.288 gm
- change in body weight ([3]; 7th day, 1000 mg/kg): 238 ± 16.17 gm
- food consumed by animals (weight) ([3]; 7th day, 1000 mg/kg): 88.6 ± 1.363 gm
- change in body weight ([3]; 14th day, 300 mg/kg): 253 ± 8 gm
- food consumed by animals (weight) ([3]; 14th day, 300 mg/kg): 89.2 ± 2.009 gm
- food intake ([3]; 14th day, 1000 mg/kg, compared to control): significant decrease in food intake
- change in body weight ([3]; 14th day, 1000 mg/kg): 231 ± 15.033 gm
- food consumed by animals (weight) ([3]; 14th day, 1000 mg/kg): 82.4 ± 1.939 gm
- toxicity signs ([3]; oral, 1000 mg/kg): toxicity signs were seen
- tremors, change in eye and skin color ([3]; oral, 1000 mg/kg): tremors, change in eye and skin color was observed
- Mortality ([3]; oral, 2000 mg/kg): Mortality was observed
- migration percentages ([4]; CT-26, 25 μM): 45.61%
- migration percentages ([4]; CT-26, 50 μM): 30.62%
- SOD level, spleen ([5]; compared with IG-01–007 and IG-01–008 at 300 mg/kg): significant reduction of SOD level
- SOD level, spleen ([5]; compared with control and 1 % DMSO): significant decrease seen in SOD level
- % migration of cell ([6]; HCT-116, 25 μM): 41.75%
- % migration of cell ([6]; HCT-116, 50 μM): 35.07%
- DNA fragmentation [7]: DNA fragmentation
- IC50 [8]: 61.2 ± 21.2 µM
- cell viability ([9]; HCT-116, 10 μM and 25 μM): no significant reduction in cell viability
- IC50 ([9]; Homo sapiens, HCT-116, 24 h): 30.1 ± 1.58 µM
- MDA levels, liver [10]: significantly higher
- Globulin ([11]; 300 mg/kg): 3.80 ± 0.404 g/dL
- A/G ratio ([11]; 300 mg/kg): 0.69 ± 0.0608
- Albumin ([11]; 300 mg/kg): 3.33 ± 0.437 g/dL
- Total protein ([11]; 300 mg/kg): 7.03 ± 0.491 g/dL
- SGPT (ALT) ([11]; 300 mg/kg): 47.66 ± 2.728 U/L
- ALP ([11]; 300 mg/kg): 307.33 ± 7.218 U/L
- SGOT (AST) ([11]; 300 mg/kg): 193 ± 12.74 U/L
- Globulin ([11]; 1000 mg/kg): 4.006 ± 0.1034 g/dL
- A/G ratio ([11]; 1000 mg/kg): 0.6966 ± 0.0317
- Albumin ([11]; 1000 mg/kg): 3.683 ± 0.261 g/dL
- Total protein ([11]; 1000 mg/kg): 7.40 ± 0.324 g/dL
- SGPT (ALT) ([11]; 1000 mg/kg): 75.33 ± 4.05 U/L
- Triglycerides ([11]; 1000 mg/kg, normal range 20–114, mean ± S.E.M): 115 ± 4.055 mg%
- ALP ([11]; 1000 mg/kg): 343.0 ± 10.785 U/L
- SGOT (AST) ([11]; 1000 mg/kg): 242 ± 3.785 U/L
- Liver sections, histopathology ([12]; 300 mg/kg): healthy with normal hepatocytes while some sections were found to have non-uniform cell structure
- Spleen sections, histopathology ([12]; 300 mg/kg): diffuse white pulp and distorted lymphoid architecture
- Liver sections, histopathology ([12]; 1000 mg/kg): healthy with mild activation of kupffer cells indicated by circle and moderate steatosis
- Spleen sections, histopathology ([12]; 1000 mg/kg): diffuse white pulp and distorted lymphoid architecture
